From patent publication US11192867B2, “Microbiocidal oxadiazole derivatives” (SYNGENTA PARTICIPATIONS AG, priority 2016, dated 2021)

Assays:
[1] = test system: Puccinia recondita f. sp. Tritici; experiment: Fungicidal activity against Puccinia recondita f. sp. Tritici / wheat / leaf disc curative (brown rust); type: in vivo; settings: foliar, 24 h, 200 ppm in the applied formulation, wheat leaf segments cv. Kanzler, applied 1 day after inoculation, vs untreated control, read-out: disease control
Procedure: Leaf disks or leaf segments of various plant species are cut from plants grown in a greenhouse. The cut leaf disks or segments are placed in multiwell plates (24-well format) onto water agar. The leaf disks are sprayed with a test solution before (preventative) or after (curative) inoculation. Compounds to be tested are prepared as DMSO solutions (max. 10 mg/ml) which are diluted to the appropriate concentration with 0.025% Tween20 just before spraying. The inoculated leaf disks or segments are incubated under defined conditions (temperature, relative humidity, light, etc.) according to the respective test system. A single evaluation of disease level is carried out 3 to 14 days after inoculation, depending on the pathosystem. Percent disease control relative to the untreated check leaf disks or segments is then calculated.
Wheat leaf segments cv. Kanzler are placed on agar in multiwell plates (24-well format). The leaf segments are then inoculated with a spore suspension of the fungus. Plates were stored in darkness at 19° C. and 75% relative humidity. The formulated test compound diluted in water was applied 1 day after inoculation. The leaf segments were incubated at 19° C. and 75% relative humidity under a light regime of 12 hours light/12 hours darkness in a climate cabinet and the activity of a compound was assessed as percent disease control compared to untreated when an appropriate level of disease damage appears in untreated check leaf segments (6 to 8 days after application).
The following compounds at 200 ppm in the applied formulation give at least 80% disease control in this test when compared to untreated control leaf disks under the same conditions, which show extensive disease development.

[2] = test system: Puccinia recondita f. sp. Tritici; experiment: Fungicidal activity against Puccinia recondita f. sp. Tritici / wheat / leaf disc preventative (brown rust); type: in vivo; settings: foliar, 200 ppm in the applied formulation, wheat leaf segments cv. Kanzler, inoculated 1 day after application, vs untreated control, read-out: disease control
Procedure, shortened: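 Single evaluation 7–9 d after spraying: % disease control compared with untreated leaf segments. Protocol: cv. Kanzler segments, preventative spray at 200 ppm, spore inoculation at day 1, 19° C., 75% rh, 12 h light/12 h dark.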

[3] = test system: Glomerella lagenarium (Colletotrichum lagenarium); experiment: Fungicidal activity against Glomerella lagenarium (Colletotrichum lagenarium) liquid culture / cucumber / preventative (anthracnose); type: cell-based; settings: Colletotrichum orbiculare, 72 h; 20 ppm in the applied formulation; liquid culture (PDB), growth inhibition measured photometrically 3 to 4 days after application; vs untreated control; read-out: disease control
Procedure, shortened: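 Photometric read-out of fungal growth 3 to 4 days after application, expressed as percent control relative to untreated wells. Plates held at 24 °C. Compound placed in DMSO before adding PDB broth seeded with conidia from cryogenic storage.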

Phakopsora pachyrhizi = experiment: Fungicidal activity against Phakopsora pachyrhizi / soybean / leaf disc preventative (Asian soybean rust); type: in vivo; settings: foliar, 200 ppm in the applied formulation, soybean leaf disks, vs untreated control, read-out: disease control
Procedure, shortened: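 Preventative test: compound sprayed onto soybean leaf discs one day before spore inoculation of the lower leaf face. Incubation at 20 °C and 75% rh, first 24-36 h in darkness, then a 12 h light cycle. Disease control versus untreated discs read 12-14 days after application.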

C[C@H](ON=CCNC(=O)c1ccc(-c2noc(C(F)(F)F)n2)cc1)C(=O)O [Compound 1.77, (2S)-2-[2-[[4-[5-(trifluoromethyl)-1,2,4-oxadiazol-3-yl]benzoyl]amino]ethylideneamino] oxypropanoic acid]
≥ 80%: pest or weed control at 200 ppm [1] | pest or weed control at 200 ppm [2] | inhibition of growth at 20 ppm [3]

CC(C=NOCCN)NC(=O)c1ccc(-c2noc(C(F)(F)F)n2)cc1 (stereo not drawn) [Compound 1.21, N-[2-(2-aminoethoxy-imino)-1-methyl-ethyl]-4-[5-(trifluoromethyl)-1,2,4-oxadiazol-3-yl]benzamide]
≥ 80%: pest or weed control at 200 ppm [1] | pest or weed control at 200 ppm (Phakopsora pachyrhizi) | pest or weed control at 200 ppm [2]

CC(C=NOCC(=O)O)NC(=O)c1ccc(-c2noc(C(F)(F)F)n2)cc1 (stereo not drawn) [Compound 1.20, 2-[2-[[4-[5-(trifluoromethyl)-1,2,4-oxadiazol-3-yl]benzoyl]amino]propylidene-amino] oxyacetic acid]
≥ 80%: pest or weed control at 200 ppm [1] | pest or weed control at 200 ppm [2] | inhibition of growth at 20 ppm [3]

CC(CNC(=O)c1ccc(-c2noc(C(F)(F)F)n2)cc1)=NOC1CCCCO1 (stereo not drawn) [Compound 1.114, N-(2-tetrahydropyran-2-yloxyiminopropyl)-4-[5-(trifluoromethyl)-1,2,4-oxadiazol-3-yl]benzamide]
≥ 80%: pest or weed control at 200 ppm [1] | pest or weed control at 200 ppm (Phakopsora pachyrhizi) | pest or weed control at 200 ppm [2] | inhibition of growth at 20 ppm [3]

CC(CNC(=O)c1ccc(-c2noc(C(F)(F)F)n2)cc1)=NOCCN [Compound 1.110, N-[2-(2-aminoethoxy-imino)propyl]-4-[5-(trifluoromethyl)-1,2,4-oxadiazol-3-yl]benzamide]
≥ 80%: pest or weed control at 200 ppm [1] | pest or weed control at 200 ppm (Phakopsora pachyrhizi) | pest or weed control at 200 ppm [2] | inhibition of growth at 20 ppm [3]

CC(C=NOC1COC1)NC(=O)c1ccc(-c2noc(C(F)(F)F)n2)cc1 (stereo not drawn) [Compound 1.58, N-[1-methyl-2-(oxetan-3-yloxyimino)ethyl]-4-[5-(trifluoromethyl)-1,2,4-oxadiazol-3-yl]benzamide]
≥ 80%: pest or weed control at 200 ppm [1] | pest or weed control at 200 ppm (Phakopsora pachyrhizi) | pest or weed control at 200 ppm [2] | inhibition of growth at 20 ppm [3]

CC(C=NO[C@H](C)C(=O)O)NC(=O)c1ccc(-c2noc(C(F)(F)F)n2)cc1 (stereo partly drawn) [Compound 1.29, (2R)-2-[2-[[4-[5-(trifluoromethyl)-1,2,4-oxadiazol-3-yl]benzoyl]amino]propylideneamino] oxypropanoic acid]
≥ 80%: pest or weed control at 200 ppm [1] | pest or weed control at 200 ppm [2] | inhibition of growth at 20 ppm [3]

CON=CC(C)(C)NC(=O)c1ccc(-c2noc(C(F)(F)F)n2)cc1F [Compound 1.2, 2-fluoro-N-(2-methoxyimino-1,1-dimethyl-ethyl)-4-[5-(trifluoromethyl)-1,2,4-oxadiazol-3-yl]benzamide]
≥ 80%: pest or weed control at 200 ppm [1] | pest or weed control at 200 ppm (Phakopsora pachyrhizi) | inhibition of growth at 20 ppm [3]

CCON=CC(C)NC(=O)c1ccc(-c2noc(C(F)(F)F)n2)cc1 (stereo not drawn) [Compound 1.43, N-(2-ethoxyimino-1-methyl-ethyl)-4-[5-(trifluoromethyl)-1,2,4-oxadiazol-3-yl]benzamide]
≥ 80%: pest or weed control at 200 ppm [1] | pest or weed control at 200 ppm (Phakopsora pachyrhizi) | pest or weed control at 200 ppm [2] | inhibition of growth at 20 ppm [3]

CC(CNC(=O)c1ccc(-c2noc(C(F)(F)F)n2)cc1)=NOC1COC1 [Compound 1.146, N-[2-(oxetan-3-yloxyimino)propyl]-4-[5-(trifluoromethyl)-1,2,4-oxadiazol-3-yl]benzamide]
≥ 80%: pest or weed control at 200 ppm [1] | pest or weed control at 200 ppm (Phakopsora pachyrhizi) | pest or weed control at 200 ppm [2] | inhibition of growth at 20 ppm [3]

COc1ccc(CON=CC(C)NC(=O)c2ccc(-c3noc(C(F)(F)F)n3)cc2)cc1 (stereo not drawn) [Compound 1.19, N-[2-[(4-methoxyphenyl)methoxyimino]-1-methyl-ethyl]-4-[5-(trifluoromethyl)-1,2,4-oxadiazol-3-yl]benzamide]
≥ 80%: pest or weed control at 200 ppm [1] | pest or weed control at 200 ppm (Phakopsora pachyrhizi)

CC(C=NO[C@@H](C)C(=O)O)NC(=O)c1ccc(-c2noc(C(F)(F)F)n2)cc1 (stereo partly drawn) [Compound 1.32, (2S)-2-[2-[[4-[5-(trifluoromethyl)-1,2,4-oxadiazol-3-yl]benzoyl]amino]propylideneamino] oxypropanoic acid]
≥ 80%: pest or weed control at 200 ppm [1] | pest or weed control at 200 ppm [2] | inhibition of growth at 20 ppm [3]

COc1cccc(CON=CC(C)NC(=O)c2ccc(-c3noc(C(F)(F)F)n3)cc2)c1 (stereo not drawn) [Compound 1.17, N-[2-[(3-methoxyphenyl)methoxyimino]-1-methyl-ethyl]-4-[5-(trifluoromethyl)-1,2,4-oxadiazol-3-yl]benzamide]
≥ 80%: pest or weed control at 200 ppm [1] | pest or weed control at 200 ppm (Phakopsora pachyrhizi) | inhibition of growth at 20 ppm [3]

CC(C=NOC(C)C(=O)O)NC(=O)c1ccc(-c2noc(C(F)(F)F)n2)cc1 (stereo not drawn) [Compound 1.37, 2-[2-[[4-[5-(trifluoromethyl)-1,2,4-oxadiazol-3-yl]benzoyl]amino]propylideneamino] oxypropanoic acid]
≥ 80%: pest or weed control at 200 ppm [1] | pest or weed control at 200 ppm [2] | inhibition of growth at 20 ppm [3]

CC(C=NOCc1ccc([N+](=O)[O-])cc1)NC(=O)c1ccc(-c2noc(C(F)(F)F)n2)cc1 (stereo not drawn) [Compound 1.16, N-[1-methyl-2-[(4-nitrophenyl)methoxyimino]ethyl]-4-[5-(trifluoromethyl)-1,2,4-oxadiazol-3-yl]benzamide]
≥ 80%: pest or weed control at 200 ppm [1] | pest or weed control at 200 ppm (Phakopsora pachyrhizi)

CC(CNC(=O)c1ccc(-c2noc(C(F)(F)F)n2)cc1)=NOC(C)C(=O)O (stereo not drawn) [Compound 1.125, 2-[[1-methyl-2-[[4-[5-(trifluoromethyl)-1,2,4-oxadiazol-3-yl]benzoyl]amino]ethylidene]amino] oxypropanoic acid]
≥ 80%: pest or weed control at 200 ppm [1] | pest or weed control at 200 ppm [2] | inhibition of growth at 20 ppm [3]

CC(CNC(=O)c1ccc(-c2noc(C(F)(F)F)n2)cc1)=NO[C@@H](C)C(=O)O [Compound 1.120, (2S)-2-[[1-methyl-2-[[4-[5-(trifluoromethyl)-1,2,4-oxadiazol-3-yl]benzoyl]amino]ethylidene]amino] oxypropanoic acid]
≥ 80%: pest or weed control at 200 ppm [1] | pest or weed control at 200 ppm [2] | inhibition of growth at 20 ppm [3]

Cc1ccc(CON=CC(C)NC(=O)c2ccc(-c3noc(C(F)(F)F)n3)cc2)cc1 (stereo not drawn) [Compound 1.18, N-[1-methyl-2-(p-tolylmethoxyimino)ethyl]-4-[5-(trifluoromethyl)-1,2,4-oxadiazol-3-yl]benzamide]
≥ 80%: pest or weed control at 200 ppm [1]

CC(CNC(=O)c1ccc(-c2noc(C(F)(F)F)n2)cc1)=NO[C@H](C)C(=O)O [Compound 1.117, (2R)-2-[[1-methyl-2-[[4-[5-(trifluoromethyl)-1,2,4-oxadiazol-3-yl]benzoyl]amino]ethylidene]amino] oxypropanoic acid]
≥ 80%: pest or weed control at 200 ppm [1] | pest or weed control at 200 ppm [2] | inhibition of growth at 20 ppm [3]

CON=CC(C)(C)NC(=O)c1ccc(-c2noc(C(F)(F)F)n2)cc1 [Compound 1.1, N-(2-methoxyimino-1,1-dimethyl-ethyl)-4-[5-(trifluoromethyl)-1,2,4-oxadiazol-3-yl]benzamide]
≥ 80%: pest or weed control at 200 ppm [1] | inhibition of growth at 20 ppm [3]
